Source: patent US9127008B2, “Morphine sulfate methanolic solvate, processes for making same and related compositions and methods for treating pain” (Johnson Matthey Public Limited Company, priority 2013, dated 2015)
Where two headings read alike, the source gives them in different places.

Key:
[1] = 2 months under air at room temperature
[2] = Storage of morphine sulfate in moisturizing chamber (moist room temperature air), ABUK/water/ethanol analysis; type: physicochemical; conditions: after several days in moisturizing chamber

Row | Compound | methanol content after storage [1] [% by weight] | water content after storage [1] [% by weight] | ABUK level after storage ([1]; morphine base had 5 ppm ABUK at start) [ppm] | ABUK level after storage ([2]; constant flow of moist room temperature air, 17 ppm ABUK before) [ppm] | ethanol content after storage ([2]; 0.95% before (gas chromatography)) [%] | water content after storage ([2]; 5.25% before (Karl Fischer)) [%]
1 | CN1CC[C@]23c4c5ccc(O)c4O[C@H]2[C@@H](O)C=C[C@H]3[C@H]1C5 [morphine base, morphine] | 0.08 | 5.70 | 117 |  |  | 
2 | CN1CC[C@]23c4c5ccc(O)c4O[C@H]2[C@@H](O)C=C[C@H]3[C@H]1C5.O=S(=O)(O)O [morphine sulfate] |  |  |  | 123 | 0.11 | 9.8
